# According to ChEMBL document CHEMBL3885861, “Open TG-GATES”:
# Species on record: Rattus norvegicus
# Assay: Open TG-GATES - Regimen: Single
# Format: toxicity, organism-based, Sprague-Dawley
# Set-up: regimen Single, gender Male, age 6 weeks
# Conditions: in vivo, po, 15 mg/kg, route gavage, dose level Middle; for APTT / Bas / Eos / Fbg / Hb / Ht / Lym / MCH / MCHC / MCV / Mono / Neu / PT / Plat / RBC / Ret / WBC: tissue Blood; for LIVER: tissue Liver; for A/G / ALP / ALT / AST / BUN / CRE / Ca / Cl / DBIL / GLC / IP / K / LDH / Na / PL / RALB / TBIL / TC / TG / TP / gamma-GTP: tissue Plasma
compound,measurement,setting,value
C=C(C)[C@H]1Cc2c(ccc3c2O[C@@H]2COc4cc(OC)c(OC)cc4[C@@H]2C3=O)O1 [ROTENONE],TERMINAL_BW,3 h,196.9 g
same,APTT,3 h,16.9 s
same,Bas,3 h,0%
same,Eos,3 h,0.8%
same,Fbg,3 h,214 mg/dL
same,Hb,3 h,13.1 g/dL
same,Ht,3 h,40.1%
same,Lym,3 h,63.8%
same,MCH,3 h,20.7 pg
same,MCHC,3 h,32.6%
same,MCV,3 h,63.4 fL
same,Mono,3 h,13.6%
same,Neu,3 h,22%
same,PT,3 h,12.4 s
same,Plat,3 h,122.6 x10_4/uL
same,RBC,3 h,634 x10_4/ul
same,Ret,3 h,8.9%
same,WBC,3 h,89.2 x10_2/uL
same,LIVER,3 h,8.7 g
same,A/G,3 h,2.4
same,ALP,3 h,1502.2 IU/L
same,ALT,3 h,37.8 IU/L
same,AST,3 h,71.4 IU/L
same,BUN,3 h,14.2 mg/dL
same,CRE,3 h,0.4 mg/dL
same,Ca,3 h,10.9 mg/dL
same,Cl,3 h,104.2 meq/L
same,DBIL,3 h,0.01 mg/dL
same,GLC,3 h,191.6 mg/dL
same,IP,3 h,8.8 mg/dL
same,K,3 h,4 meq/L
same,LDH,3 h,106.6 IU/L
same,Na,3 h,141 meq/L
same,PL,3 h,126.8 mg/dL
same,RALB,3 h,3.9 g/dL
same,TBIL,3 h,0.038 mg/dL
same,TC,3 h,82 mg/dL
same,TG,3 h,37.4 mg/dL
same,TP,3 h,5.5 g/dL
same,gamma-GTP,3 h,0.8 IU/L
same,TERMINAL_BW,6 h,198.2 g
same,APTT,6 h,16.4 s
same,Bas,6 h,0%
same,Eos,6 h,0.8%
same,Fbg,6 h,209.6 mg/dL
same,Hb,6 h,13.2 g/dL
same,Ht,6 h,40.1%
same,Lym,6 h,75.8%
same,MCH,6 h,21 pg
same,MCHC,6 h,32.9%
same,MCV,6 h,63.9 fL
same,Mono,6 h,5.4%
same,Neu,6 h,18.2%
same,PT,6 h,12.4 s
same,Plat,6 h,127.4 x10_4/uL
same,RBC,6 h,628.4 x10_4/ul
same,Ret,6 h,8.2%
same,WBC,6 h,100.4 x10_2/uL
same,LIVER,6 h,8.7 g
same,A/G,6 h,2.3
same,ALP,6 h,1188.8 IU/L
same,ALT,6 h,33.6 IU/L
same,AST,6 h,68 IU/L
same,BUN,6 h,11.8 mg/dL
same,CRE,6 h,0.4 mg/dL
same,Ca,6 h,11 mg/dL
same,Cl,6 h,103.8 meq/L
same,DBIL,6 h,0.01 mg/dL
same,GLC,6 h,194 mg/dL
same,IP,6 h,9.7 mg/dL
same,K,6 h,4 meq/L
same,LDH,6 h,84.2 IU/L
same,Na,6 h,140.6 meq/L
same,PL,6 h,139.2 mg/dL
same,RALB,6 h,3.7 g/dL
same,TBIL,6 h,0.044 mg/dL
same,TC,6 h,79.8 mg/dL
same,TG,6 h,74.6 mg/dL
same,TP,6 h,5.4 g/dL
same,gamma-GTP,6 h,0.4 IU/L
same,TERMINAL_BW,9 h,198.7 g
same,APTT,9 h,16.4 s
same,Bas,9 h,0%
same,Eos,9 h,0.2%
same,Fbg,9 h,217 mg/dL
same,Hb,9 h,12.7 g/dL
same,Ht,9 h,38.7%
same,Lym,9 h,79.2%
same,MCH,9 h,21 pg
same,MCHC,9 h,32.9%
same,MCV,9 h,63.7 fL
same,Mono,9 h,6.8%
same,Neu,9 h,13.6%
same,PT,9 h,12.7 s
same,Plat,9 h,133.8 x10_4/uL
same,RBC,9 h,607.8 x10_4/ul
same,Ret,9 h,8.8%
same,WBC,9 h,91.4 x10_2/uL
same,LIVER,9 h,8.3 g
same,A/G,9 h,2.4
same,ALP,9 h,1265 IU/L
same,ALT,9 h,29.8 IU/L
same,AST,9 h,65.6 IU/L
same,BUN,9 h,10.4 mg/dL
same,CRE,9 h,0.4 mg/dL
same,Ca,9 h,11.4 mg/dL
same,Cl,9 h,104.2 meq/L
same,DBIL,9 h,0.01 mg/dL
same,GLC,9 h,186 mg/dL
same,IP,9 h,10 mg/dL
same,K,9 h,4.1 meq/L
same,LDH,9 h,103.8 IU/L
same,Na,9 h,139.8 meq/L
same,PL,9 h,132.2 mg/dL
same,RALB,9 h,3.7 g/dL
same,TBIL,9 h,0.044 mg/dL
same,TC,9 h,79.2 mg/dL
same,TG,9 h,40 mg/dL
same,TP,9 h,5.2 g/dL
same,gamma-GTP,9 h,1 IU/L
same,TERMINAL_BW,24 h,213.8 g
same,APTT,24 h,15.5 s
same,Bas,24 h,0%
same,Eos,24 h,0.8%
same,Fbg,24 h,216 mg/dL
same,Hb,24 h,12.8 g/dL
same,Ht,24 h,38.8%
same,Lym,24 h,78.6%
same,MCH,24 h,21.5 pg
same,MCHC,24 h,32.9%
same,MCV,24 h,65.3 fL
same,Mono,24 h,5.6%
same,Neu,24 h,15%
same,PT,24 h,11.8 s
same,Plat,24 h,113 x10_4/uL
same,RBC,24 h,595 x10_4/ul
same,Ret,24 h,8.1%
same,WBC,24 h,100 x10_2/uL
same,LIVER,24 h,11 g
same,A/G,24 h,2.6
same,ALP,24 h,1529.4 IU/L
same,ALT,24 h,36 IU/L
same,AST,24 h,67 IU/L
same,BUN,24 h,17.2 mg/dL
same,CRE,24 h,0.4 mg/dL
same,Ca,24 h,11.6 mg/dL
same,Cl,24 h,104.2 meq/L
same,DBIL,24 h,0.012 mg/dL
same,GLC,24 h,187 mg/dL
same,IP,24 h,7.4 mg/dL
same,K,24 h,4.4 meq/L
same,LDH,24 h,112.8 IU/L
same,Na,24 h,140.4 meq/L
same,PL,24 h,168.4 mg/dL
same,RALB,24 h,4 g/dL
same,TBIL,24 h,0.032 mg/dL
same,TC,24 h,88.8 mg/dL
same,TG,24 h,152 mg/dL
same,TP,24 h,5.6 g/dL
same,gamma-GTP,24 h,0.4 IU/L
